Columns and labels:
[1] = tested on: CREB; test: Western blot, p-CREB; type: cell-based, Human; settings: 5 µM; induced untreated 81%
Procedure: (§1) Cellular proteins were prepared using a lysis buffer containing NaCl (150 mM), ethylene diamine tetraacetic acid (EDTA, 1 mM, pH8.0), Tris-HCl (50 mM, pH8.0), ethylene glycol tetraacetic acid (EGTA, 1 mM, pH8.0), sodium dodecyl sulfate (SDS, 0.1%), sodium deoxycholate (SD, 0.5%), Triton X-100 (1%), and protease (Sigma-Aldrich), and phosphatase (Abcam, Cambridge, MA, USA) inhibitor cocktails. After quantitation by protein assay kit (Bio-Rad, Hercules, CA, USA), 20 µg proteins were separated by SDS-polyacrylamide (10%) gel electrophoresis and transferred to polyvinylidene difluoride (PVDF) membranes (Sigma-Aldrich) using a Mini Trans-Blot cell (Bio-Rad). After blocking, the membrane was probed with anti-TRKB, anti-p-TRKB (Y516), anti-p-TRKB (Y817) (1:500; Cell Signaling, Danvers, MA, USA), anti-ERK, anti-p-ERK (T202/Y204) (1:1000; Cell Signaling), anti-AKT, anti-p-AKT (S473) (1:1000; Cell Signaling), anti-CREB, anti-p-CREB (S133) (1:1000; Millipore, Billerica, MA, USA), anti-BDNF, anti-BCL2 (1:500; Santa Cruz Biotechnology, Santa Cruz, CA, USA), anti-BAX (1:1000; Cell Signaling), anti-β-tubulin (1:500; Sigma-Aldrich), or anti-GAPDH (1:1000, MDBio, Taipei, Taiwan) antibody. The immune complexes were detected using goat anti-mouse or goat anti-rabbit IgG antibody conjugated with horseradish peroxidase (1:5000; GeneTex, Irvine, CA, USA) and chemiluminescent substrate (Millipore).

[2] = tested on: BDNF; test: Western blot, BDNF; type: cell-based, Human; settings: 5 µM
Procedure: as §1

[3] = in vitro; settings: for Papp at 18 h, 1 μM: PAMPA
Procedure: PAMPA was used to predict the penetration of the tested compounds across the BBB. […] The filter PVDF membrane (pore size 0.45 μm; Millipore) was coated with 4 μL of porcine polar brain lipid (20 mg/mL; Avanti Polar Lipids, Alabaster, AL, USA) in dodecane and the acceptor well filled with 200 μL of 5% DMSO in PBS. The filter plate was carefully placed on the donor plate to form a sandwich plate at room temperature for 18 h. After the permeation time, the filter and donor plates were separated. The concentration of the tested compound in the donor and acceptor wells was measured by an AB Sciex QTrap 5500 mass spectrometer (Applied Biosystems) linked to a 1200 HPLC system (Agilent Technologies, Palo Alto, CA, USA). The concentrations of the QC compounds were determined by a Tecan Infinite M200 Pro microplate reader (Switzerland). The effective permeability coefficient (Pe) was calculated as described. Each compound was tested in triplicate.

[4] = tested on: Aβ-GFP SH-SY5Y cells; test: Neurite outgrowth analysis; type: cell-based, Human; settings: 5 µM
Procedure: Aβ-GFP SH-SY5Y cells (6 × 10^4 cells) were seeded on a 24-well plate with retinoic acid (10 µM) on day 1. Tested coumarins (5 µM) and doxycycline (5 μg/mL) were added on day 2, as described. On day 8, the cells were washed with phosphate-buffered saline (PBS) twice and fixed in 4% paraformaldehyde at 4 °C for 15 min. Cells were permeabilized with Triton X-100 (0.1%) for 10 min, blocked with bovine serum albumin (3%) for 20 min, and stained with anti-neuronal TUBB3 antibody (1:1000; Covance, Princeton, NJ, USA) at 4 °C overnight. The next day, cells were washed with PBS twice and stained by a secondary donkey anti-rabbit Alexa Fluor® 555 antibody (1:1000; Thermo Fisher Scientific) and 4′,6-diamidino-2-phenylindole (DAPI; 0.1 µg/mL; Sigma-Aldrich) at room temperature for 1 h. Neuronal images from at least 60 individual fields (150–250 neurons per field) per experiment were captured at excitation 531/40 nm and emission 593/40 nm wavelengths using an ImageXpress micro confocal high-content imaging system (Molecular Devices). Neurite total length (μm) and numbers of process (the number of primary neurites originated from the cell body of a neuron) and branch (the number of secondary neurites extended from primary neurites) were analyzed using a MetaXpress neurite outgrowth application module (Molecular Devices). For each sample, around 6000 cells were analyzed in each of three independent experiments.
(§2) Lentiviral short hairpin RNA (shRNA) targeting TRKB (TRCN0000002243, TRCN0000002245, and TRCN0000002246) and a negative-scrambled control (TRC2.Void) were obtained from the National RNAi Core Facility, IMB/GRC, Academia Sinica (Taipei, Taiwan). As described, cells were plated on 6- or 24-well plates, with retinoic acid added on day 1. Cells were infected with lentivirus (multiplicity of infection, 3 for each shRNA), with polybrene (8 µg/mL; Sigma-Aldrich) on the next day. Cells were pretreated with tested compounds (5 µM) for 8 h after changing medium, followed by doxycycline on day 3. Cells were collected for further analysis on day 9. The hairpin sequences of targeting shRNA were below: • TRCN0000002243: 5’-[…]ctcgag[…]-3’ • TRCN0000002245: 5’-[…]ctcgagATGTT-[…]-3’ • TRCN0000002246: 5’-[…]ctcgag[…]-3’ • TRC2.Void: 5’-[…]ctcgag[…]-3’

[5] = tested on: AKT; test: Western blot, p-AKT; type: cell-based, Human; settings: 5 µM; induced untreated 81%
Procedure: as §1

[6] = tested on: BCL2; test: Western blot, BCL2; type: cell-based, Human; settings: 5 µM; induced untreated 72%
Procedure: as §1

[7] = tested on: ERK; test: Western blot, p-ERK; type: cell-based, Human; settings: 5 µM; induced untreated 79%
Procedure: as §1

[8] = tested on: TRKB; test: Western blot, TRKB and p-TRKB; type: cell-based, Human; settings: 5 µM
Procedure: as §1, §2

[9] = tested on: BAX; test: Western blot, BAX; type: cell-based, Human; settings: 5 µM; induced untreated 182%
Procedure: as §1

[10] = molecular target: T1, Aβ42 peptide (Homo sapiens, UniProt P05067); test: Thioflavin T aggregation assay; type: biochemical; settings: for Aβ aggregation inhibition (in words): compound 20 μM, thioflavin T assay
T1 construct: Aβ42 peptide (10 μM; Kelowna Int’l Scientific Inc., New Taipei City, Taiwan); purchased Kelowna Int’l Scientific Inc., New Taipei City, Taiwan
T1 sequence (P05067 672-713 limits assumed): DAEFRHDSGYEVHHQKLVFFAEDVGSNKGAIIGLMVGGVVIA
Procedure: To form Aβ aggregation, Aβ42 peptide (10 μM; Kelowna Int’l Scientific Inc., New Taipei City, Taiwan) was incubated with tested compounds (5–20 μM) in 150 mM NaCl and 20 mM Tris-HCl (pH8.0) at 37 °C for 48 h. Thioflavin T (10 μM; Sigma-Aldrich) was added to the Aβ mixture and incubated at room temperature for 5 min. The fluorescence intensity was recorded at 420 nm excitation and 485 nm emission by an FLx800 microplate reader (Bio-Tek, Winooski, VT, USA). Half maximal effective concentration (EC50) was estimated by a method of interpolation.

[11] = in vitro; type: cell-based; settings: human
Procedure: To induce neuronal differentiation, 2 × 10^4 Aβ-GFP SH-SY5Y cells were seeded on a 96-well plate with retinoic acid (10 µM; Sigma-Aldrich). Cells were pretreated with tested compounds (0.2–5 µM) on day 2 for 8 h and then with doxycycline (5 μg/mL) to induce Aβ-GFP expression. Medium containing retinoic acid compound and doxycycline was refreshed every 2 days for 6 days. Then, cells were stained with Hoechst 33342 (0.1 µg/mL; Sigma-Aldrich) at 37 °C for 30 min. Cell images were recorded at 482/35 nm excitation and 536/40 nm emission wavelengths (ImageXpres Micro Confocal High-Content Imaging System; Molecular Devices, Sunnyvale, CA, USA), and analyzed by MetaXpress (Molecular Devices).

## O=c1cc(-c2ccccc2)oc2c(O)c(O)ccc12 [7,8-DHF, reference compound]
[1]
  p-CREB (S133) protein level relative to uninduced cells (100%): 98–101%
[2]; induced untreated 42%
  BDNF 14 kDa protein level relative to uninduced cells (100%): 124–140%
[2]; induced untreated 88%
  BDNF 32 kDa protein level relative to uninduced cells (100%): 113–119%
[3]; PAMPA-BBB
  BBB Permeability Classification: High (Pe > 4 × 10^−6 cm/s (high))
[3]; PAMPA-BBB, room temperature 18 h, triplicate
  Measured Pe (effective permeability): 6.32 ± 1.35 10^−6 cm/s
[4]; TRKB shRNA-infected cells, untreated 2.9
  Neurite process number: 3.5
[4]; scrambled shRNA-infected cells, untreated 2.4
  Neurite branch number: 3.0–3.1
[4]; scrambled shRNA-infected cells, untreated 3.5
  Neurite process number: 3.9–4.0
[4]; scrambled shRNA-infected cells, untreated 25.3
  Neurite length: 30.7–30.9 µm
[5]
  p-AKT (S473) protein level relative to uninduced cells (100%): 91–110%
[6]
  BCL2 protein level relative to uninduced cells (100%): 104–116%
[7]
  p-ERK (T202/Y204) protein level relative to uninduced cells (100%): 95–107%
[8]; induced untreated 40%
  p-TRKB (Y516) protein level relative to uninduced cells (100%): 92–100%
[8]; induced untreated 71%
  p-TRKB (Y817) protein level relative to uninduced cells (100%): 94–108%
[8]; scrambled shRNA-infected Aβ-expressing cells, untreated 80%
  TRKB expression relative to uninduced cells (100%): 77–81%
[9]
  BAX protein level relative to uninduced cells (100%): 126%

## NC(=O)N1c2ccccc2C=Cc2ccccc21 [Carbamazepine, carbamazepine]
[3]; BBB Permeability Classification
  Papp at 18 h, 1 μM: > 40 nm/s
[3]; Measured Pe (effective permeability)
  Papp at 18 h, 1 μM: 98.5 ± 6 nm/s

## CC(Oc1ccc2cc(C(=O)c3ccccc3)c(=O)oc2c1)C(=O)O (stereo not shown) [ZN009, 2-((3-benzoyl-2-oxo-2H-chromen-7-yl)oxy)propanoic acid]
[10]
  Aβ aggregation inhibition (in words): did not inhibit Aβ aggregation

## O=C(c1ccc(Cl)cc1)c1c(O)c2ccccc2oc1=O [ZN010, 3-(4-chlorobenzoyl)-4-hydroxy-2H-chromen-2-one]
[10]
  Aβ aggregation inhibition (in words): did not inhibit Aβ aggregation

## COc1ccc(C(=O)c2cc3ccc(O)cc3oc2=O)cc1 [ZN011, 7-hydroxy-3-(4-methoxybenzoyl)-2H-chromen-2-one]
[10]
  Aβ aggregation inhibition (in words): did not inhibit Aβ aggregation

## COc1cc(/C=C/C(=O)CC(=O)/C=C/c2ccc(O)c(OC)c2)ccc1O [curcumin, Curcumin, reference compound]
[10]; compound 20 µM, Aβ42 10 μM, 37 °C 2 days, 621 AU without compound, 151 AU without incubation
  Thioflavin T fluorescence (Aβ aggregation): 339 AU
[4]; induced untreated 1.8, uninduced 2.8
  Neurite branch number: 2.4–2.5
[4]; induced untreated 3.3, uninduced 4.4
  Neurite process number: 4.2–4.3
[4]; induced untreated 23.9, uninduced 31.2
  Neurite total length: 29.1–29.3 μm
[11]
  viability at 6 days, 10 µM: < 80%

## lucifer yellow
[3]; PAMPA-BBB, indicates good membrane integrity
  Penetration of integrity marker (in words): undetectable
[3]; PAMPA-BBB, integrity marker
  % Transport: 0.00 (% Transport)

— article PMC8619673 (Cells, 2021)
